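In this assay, cells in 96-well plates receive the compound at five concentrations for 48 hours. Endpoints are linearly interpolated between the surrounding concentrations. At the TGI there is no net growth.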 Calls of active or inactive are those of the source. Rule as the data show it: active = GI50 below about 0.43 µM; inactive = the rest.
Legend:
Assay in all cases: NCI-60 cell line screen, 48 h
CCRF-CEM leukemia = system: CCRF-CEM leukemia
HOP-62 NSCLC = system: HOP-62 NSCLC
SR leukemia = system: SR leukemia
LXFL 529 NSCLC = system: LXFL 529 NSCLC
OVCAR-8 ovarian = system: OVCAR-8 ovarian
TK-10 renal = system: TK-10 renal
KM12 colon = system: KM12 colon
ACHN renal = system: ACHN renal
RXF-631 renal = system: RXF-631 renal
SF-539 CNS = system: SF-539 CNS
SF-268 CNS = system: SF-268 CNS
SNB-78 CNS = system: SNB-78 CNS
SK-MEL-28 melanoma = system: SK-MEL-28 melanoma
RXF 393 renal = system: RXF 393 renal
NCI-H23 lung = system: NCI-H23 lung
HT29 colon = system: HT29 colon
HCT-15 colon = system: HCT-15 colon
NCI-H226 lung = system: NCI-H226 lung
COLO 205 colon = system: COLO 205 colon
NCI-H460 lung = system: NCI-H460 lung
OVCAR-5 ovarian = system: OVCAR-5 ovarian
SF-295 CNS = system: SF-295 CNS
786-0 renal = system: 786-0 renal
OVCAR-3 ovarian = system: OVCAR-3 ovarian
XF 498 CNS = system: XF 498 CNS
LOX IMVI melanoma = system: LOX IMVI melanoma
OVCAR-4 ovarian = system: OVCAR-4 ovarian
HL-60(TB) leukemia = system: HL-60(TB) leukemia
MOLT-4 leukemia = system: MOLT-4 leukemia
K-562 leukemia = system: K-562 leukemia
M14 melanoma = system: M14 melanoma
DLD-1 colon = system: DLD-1 colon
DMS 273 small cell lung = system: DMS 273 small cell lung
U251 CNS = system: U251 CNS
SK-MEL-2 melanoma = system: SK-MEL-2 melanoma
SN12C renal = system: SN12C renal
M19-MEL melanoma = system: M19-MEL melanoma
HCC-2998 colon = system: HCC-2998 colon
SK-MEL-5 melanoma = system: SK-MEL-5 melanoma
A549 NSCLC = system: A549 NSCLC
SNB-19 CNS = system: SNB-19 CNS
UACC-62 melanoma = system: UACC-62 melanoma
KM20L2 colon = system: KM20L2 colon
HCT-116 colon = system: HCT-116 colon
NCI-H522 lung = system: NCI-H522 lung
SW-620 colon = system: SW-620 colon
EKVX NSCLC = system: EKVX NSCLC
HOP-92 NSCLC = system: HOP-92 NSCLC
SNB-75 CNS = system: SNB-75 CNS
CAKI-1 renal = system: CAKI-1 renal
MALME-3M melanoma = system: MALME-3M melanoma
UO-31 renal = system: UO-31 renal
UACC-257 melanoma = system: UACC-257 melanoma
IGROV1 ovarian = system: IGROV1 ovarian
RPMI-8226 leukemia = system: RPMI-8226 leukemia
DMS 114 small cell lung = system: DMS 114 small cell lung
SK-OV-3 ovarian = system: SK-OV-3 ovarian
NCI/ADR-RES ovarian = system: NCI/ADR-RES ovarian
A498 renal = system: A498 renal

`COc1ccc2cc1Oc1ccc(cc1)CC1c3cc4c(cc3CCN1C)Oc1c(OC)cc3c(c1O4)C(C2)N(C)CC3` (centres undefined) was tested, and the TGI (CCRF-CEM leukemia) was 6.69 µM, the TGI (HOP-62 NSCLC) was 28 µM and the TGI (SR leukemia) was 4.68 µM. The TGI (LXFL 529 NSCLC) was 11 µM, the TGI (OVCAR-8 ovarian) was 5.45 µM and the TGI (TK-10 renal) was 31.3 µM. The TGI (KM12 colon) was 4.57 µM, the TGI (ACHN renal) was 17.9 µM and the TGI (RXF-631 renal) was 31.1 µM. It also gave a TGI (SF-539 CNS) of 3.9 µM, a TGI (SF-268 CNS) of 13.1 µM and a TGI (SNB-78 CNS) of 48 µM. It also gave a TGI (SK-MEL-28 melanoma) of 2.91 µM, a TGI (RXF 393 renal) of 7.93 µM and a TGI (NCI-H23 lung) of 18.2 µM. For the same compound, the TGI (HT29 colon) was 4.77 µM, the TGI (HCT-15 colon) was 5.82 µM and the TGI (NCI-H226 lung) was 10.7 µM. The TGI (COLO 205 colon) was 2.83 µM, the TGI (NCI-H460 lung) was 3.6 µM and the TGI (OVCAR-5 ovarian) was 26.5 µM. The TGI (SF-295 CNS) was 3.81 µM, the TGI (786-0 renal) was 23 µM and the TGI (OVCAR-3 ovarian) was 19.5 µM. It also gave a TGI (XF 498 CNS) of 3.41 µM, a TGI (LOX IMVI melanoma) of 2.81 µM and a TGI (OVCAR-4 ovarian) of 3.03 µM. For the same compound, the TGI (HL-60(TB) leukemia) was 4.25 µM, the TGI (MOLT-4 leukemia) was 4.73 µM and the TGI (K-562 leukemia) was 6.02 µM. The TGI (M14 melanoma) was 3 µM, the TGI (DLD-1 colon) was 9.62 µM and the TGI (DMS 273 small cell lung) was 3.02 µM. It also gave a TGI (U251 CNS) of 4.47 µM, a TGI (SK-MEL-2 melanoma) of 6.53 µM and a TGI (SN12C renal) of 3.62 µM. The TGI (M19-MEL melanoma) was 14.3 µM, the TGI (HCC-2998 colon) was 9.86 µM and the TGI (SK-MEL-5 melanoma) was 21.1 µM. For the same compound, the TGI (A549 NSCLC) was 21.4 µM, the TGI (SNB-19 CNS) was 13.5 µM and the TGI (UACC-62 melanoma) was 10.5 µM. The TGI (KM20L2 colon) was 9.25 µM, the TGI (HCT-116 colon) was 3.21 µM and the TGI (NCI-H522 lung) was 4.67 µM. For the same compound, the TGI (SW-620 colon) was 3.79 µM and the TGI (EKVX NSCLC) was 24.2 µM.

With `CC(C)=C1C(=O)C[C@@]2(C)C[C@H]3OC3(C)CC/C=C(/C)CCC12` (some centres undefined) the outcome (CCRF-CEM leukemia) was “inactive”, the outcome (HOP-92 NSCLC) was “inactive” and the outcome (HOP-62 NSCLC) was “inactive”. The outcome (SR leukemia) was “inactive”, the outcome (LXFL 529 NSCLC) was “inactive” and the outcome (OVCAR-8 ovarian) was “inactive”. For the same compound, the outcome (SNB-75 CNS) was “inactive”, the outcome (CAKI-1 renal) was “inactive” and the outcome (KM12 colon) was “inactive”. The outcome (ACHN renal) was “inactive”, the outcome (RXF-631 renal) was “inactive” and the outcome (MALME-3M melanoma) was “inactive”. For the same compound, the outcome (UO-31 renal) was “inactive”, the outcome (SF-539 CNS) was “inactive” and the outcome (SF-268 CNS) was “inactive”. For the same compound, the outcome (SNB-78 CNS) was “inactive”, the outcome (RXF 393 renal) was “inactive” and the outcome (NCI-H23 lung) was “inactive”. For the same compound, the outcome (UACC-257 melanoma) was “inactive”, the outcome (HT29 colon) was “inactive” and the outcome (HCT-15 colon) was “inactive”. The outcome (NCI-H226 lung) was “inactive”, the outcome (COLO 205 colon) was “inactive” and the outcome (NCI-H460 lung) was “inactive”. For the same compound, the outcome (OVCAR-5 ovarian) was “inactive”, the outcome (SF-295 CNS) was “inactive” and the outcome (786-0 renal) was “inactive”. The outcome (OVCAR-3 ovarian) was “inactive”, the outcome (XF 498 CNS) was “inactive” and the outcome (LOX IMVI melanoma) was “inactive”. For the same compound, the outcome (OVCAR-4 ovarian) was “inactive”, the TGI (HL-60(TB) leukemia) was 49.2 µM and the outcome (HL-60(TB) leukemia) was “inactive”. The outcome (MOLT-4 leukemia) was “inactive”, the outcome (IGROV1 ovarian) was “inactive” and the outcome (K-562 leukemia) was “inactive”. For the same compound, the outcome (M14 melanoma) was “inactive”, the outcome (RPMI-8226 leukemia) was “inactive” and the outcome (DMS 114 small cell lung) was “inactive”. The outcome (DLD-1 colon) was “inactive”, the outcome (DMS 273 small cell lung) was “inactive” and the outcome (U251 CNS) was “inactive”. The outcome (SK-MEL-2 melanoma) was “inactive”, the outcome (SN12C renal) was “inactive” and the outcome (HCC-2998 colon) was “inactive”. For the same compound, the outcome (SK-OV-3 ovarian) was “inactive”, the outcome (A549 NSCLC) was “inactive” and the outcome (SNB-19 CNS) was “inactive”. For the same compound, the outcome (UACC-62 melanoma) was “inactive”, the outcome (KM20L2 colon) was “inactive” and the outcome (NCI-H522 lung) was “inactive”. The TGI (NCI/ADR-RES ovarian) was 95 µM, the outcome (SW-620 colon) was “inactive” and the outcome (EKVX NSCLC) was “inactive”.

With `CCCc1onc(CCC(=O)N(Cc2ccccc2)Cc2ccccc2)c1CC` the TGI (CCRF-CEM leukemia) was over 100 µM, the TGI (HOP-92 NSCLC) was over 100 µM and the TGI (HOP-62 NSCLC) was over 100 µM. The TGI (LXFL 529 NSCLC) was over 100 µM, the TGI (CAKI-1 renal) was over 100 µM and the TGI (KM12 colon) was over 100 µM. It also gave a TGI (ACHN renal) of over 100 µM, a TGI (RXF-631 renal) of over 100 µM and a TGI (MALME-3M melanoma) of over 100 µM. It also gave a TGI (SF-268 CNS) of over 100 µM, a TGI (SNB-78 CNS) of over 100 µM and a TGI (NCI-H23 lung) of over 100 µM. For the same compound, the TGI (UACC-257 melanoma) was over 100 µM, the TGI (A498 renal) was over 100 µM and the TGI (HT29 colon) was over 100 µM. For the same compound, the TGI (HCT-15 colon) was over 100 µM, the TGI (COLO 205 colon) was over 100 µM and the TGI (NCI-H460 lung) was over 100 µM. For the same compound, the TGI (OVCAR-5 ovarian) was over 100 µM, the TGI (SF-295 CNS) was over 100 µM and the TGI (786-0 renal) was over 100 µM. For the same compound, the TGI (OVCAR-3 ovarian) was over 100 µM, the TGI (XF 498 CNS) was over 100 µM and the TGI (LOX IMVI melanoma) was over 100 µM. For the same compound, the TGI (OVCAR-4 ovarian) was over 100 µM, the TGI (HL-60(TB) leukemia) was over 100 µM and the TGI (MOLT-4 leukemia) was over 100 µM. For the same compound, the TGI (IGROV1 ovarian) was over 100 µM, the TGI (K-562 leukemia) was over 100 µM and the TGI (M14 melanoma) was over 100 µM. For the same compound, the TGI (RPMI-8226 leukemia) was over 100 µM, the TGI (DMS 114 small cell lung) was over 100 µM and the TGI (DLD-1 colon) was over 100 µM. It also gave a TGI (DMS 273 small cell lung) of over 100 µM, a TGI (U251 CNS) of over 100 µM and a TGI (SK-MEL-2 melanoma) of over 100 µM. The TGI (SN12C renal) was over 100 µM, the TGI (M19-MEL melanoma) was over 100 µM and the TGI (HCC-2998 colon) was over 100 µM. For the same compound, the TGI (SK-OV-3 ovarian) was over 100 µM, the TGI (UACC-62 melanoma) was over 100 µM and the TGI (KM20L2 colon) was over 100 µM. The TGI (NCI-H522 lung) was over 100 µM.
